The results in this text go back to patent publication US8557837B2, “Sinomenine derivatives, synthetic methods and uses thereof” (Shanghai Institute of Organic Chemistry, Chinese Academy of …, priority 2010, dated 2013).

The test system of data set [1] is TNF-α. Description: In vitro inhibition of TNF-α (LPS-stimulated J774 macrophages, ELISA of supernatant). The format is cell-based. The conditions noted are these: mice macrophage cell line J774, 1 μg/mL LPS, compound 10 μM, 5 hours. The method, then: The horizontal axis indicates the compound numbers corresponding to the examples, and the vertical axis indicates the inhibition rate (IR) of TNF-α. The concentration used in the assays is 10 μM.
In vitro inhibition of TNF-α: inoculate 48 well plates with mice macrophase cell line J774, at 1×10^5 cells/well. Incubate in DMEM containing 10% FBS under 6% CO2 for 12 hours. Use DMEM medium containing 1 μg/mL LPS to dilute the small molecule compounds to a final concentration of 10^−5 mol/L and use that to replace the original culture medium. The incubation is continued for another 5 hours. Collect the supernatants and determine TNF-α using ELISA. In this experiment, compound SB 202190 (4-(4-fluorophenyl)-2-(4-hydroxyphenyl)-5-(4-pyridyl)-1H-imidazole, CAS 152121-30-7, was purchased from Sigma. This compound is a specific inhibitor of p38 MAPK. Through inhibition of p38 phosphorylation, it inhibits the production of TNF-α) is used as a positive control.
In general terms: An ELISA detects its analyte on a solid surface through an enzyme-linked reagent.

Data set [2] relates to TNF-α. Briefly: LPS-induced endotoxin shock model, plasma TNF-alpha by ELISA. The format is in vivo. The conditions noted are these: male C57BL/6 mice, 25, 50, 100 mg/Kg injected peritoneally 1 hour before LPS 2.5 mg/Kg; blood 1.5 hours after LPS. The text has this: The horizontal axis indicates the compound numbers corresponding to the examples or the amount of Compound 1 used in mg/Kg of mouse body weight. The vertical axis indicates the concentrations of TNF-α.
Materials: C57BL/6 mice (6-8 week old) are purchased from Shanghai Laboratory Animal Center (SLAC). Animals are kept, with sufficient water and standard diets, in the Laboratory Animal Center (clean room) in the Institute of Biochemistry and Cell Biology at the Shanghai Institute for Biological Sciences, Chinese Academy of Sciences.
Lipopolysaccharides (LPS) was purchased from Sigma (St. Louis, Mo.) was dissolved in sterile physiological saline and aliquots are stored at −70° C. (The LPS used in the cell testing has a catalog No. L4391, and used in animal testing has a catalog No. L3129.)
Cytokine (TNF-alpha) ELISA test kit (Catalog No. MTA00) was purchased from R&D Co.
Steps: (1) 6-8 week old male C57BL/6 mice are randomly grouped in 5 mice per group for use in endotoxin model tests;
(2) weigh each mouse, and inject peritoneally 200 μL different concentrations of small molecule Compound 1 in physiological saline (the injection doses for the low, medium, and high groups are respectively 25 mg/Kg, 50 mg/Kg, and 100 mg/Kg body weight). The control group was injected with 200 μL physiological saline; […]

Molecules are shown by their SMILES. “Also recorded” adds a separate entry of the source.

For `COC1=C[C@@H]2[C@@H]3[C@H](Sc4ccc(C)cc4)c4ccc(O)c(O)c4[C@]2(CCN3C)CC1=O` [Compound 1], the melting point – broadly, the temperature of the solid-liquid transition – was 224 to 225 °C (dec.). The “inhibition rate (IR) of TNF-α / anti-inflammatory activity (FIG. 1)” value in the data set with TNF-α [1] is “apparent activities”. For the same molecule, the “effect on pro-inflammatory cytokine TNF-α level in plasma (FIG. 3)” value in the data set on TNF-α [2] was “substantial inhibitory effect; also recorded: dose dependent”.

For the molecule `COC1=CC2[C@@H]3[C@H](Sc4ccccc4)c4ccc(O)c(O)c4[C@]2(CCN3C)CC1=O` (stereo partly drawn) [Compound 4], the melting point was 210 to 212 °C (dec.). Besides, the “inhibition rate (IR) of TNF-α / anti-inflammatory activity (FIG. 1)” value in the data set on TNF-α [1] is given as “apparent activities”.

Consider `COC1=CC2[C@@H]3[C@H](Sc4ccc(C(C)(C)C)cc4)c4ccc(O)c(O)c4[C@]2(CCN3C)CC1=O` (stereo partly drawn) [Compound 8], for which the melting point was 232 to 233 °C (dec.). For the same molecule, the “inhibition rate (IR) of TNF-α / anti-inflammatory activity (FIG. 1)” value in the data set on TNF-α [1] is given as “apparent activities”.

For `COC1=CC2[C@@H]3[C@H](OC(C)=O)c4ccc(OC(C)=O)c(OC(C)=O)c4[C@]2(CCN3C)CC1=O` (stereo partly drawn) [Compound 31], the melting point fell in the range of 198 to 199 °C. In the data set with TNF-α [1], the “inhibition rate (IR) of TNF-α / anti-inflammatory activity (FIG. 1)” value was “apparent activities”.

Regarding `COC1=CC2[C@@H]3[C@H](OC)c4ccc(OC)c(O)c4[C@]2(CCN3C)CC1=O` (stereo partly drawn) [Compound 33, 10β-methoxysinomenine], the melting point is 201 to 203 °C (dec.). The “inhibition rate (IR) of TNF-α / anti-inflammatory activity (FIG. 1)” value in the data set with TNF-α [1] (10 µM) was “TNF-α stimulating effects; also recorded: TNF-α stimulatory activities”.

As to `COC1=CC2[C@@H]3[C@H](OC(C)=O)c4c(CO)cc(OC)c(O)c4[C@]2(CCN3C)CC1=O` (stereo partly drawn) [Compound 34, 1-hydroxymethyl-10β-acetoxysinomenine], in the data set on TNF-α [1] (10 µM), the “inhibition rate (IR) of TNF-α / anti-inflammatory activity (FIG. 1)” value was “TNF-α stimulating effects; also recorded: TNF-α stimulatory activities”.

Turning to `COC1=CC2[C@@H]3[C@H](OC)c4c(CO)cc(OC)c(O)c4[C@]2(CCN3C)CC1=O` (stereo partly drawn) [Compound 35, 1-hydroxymethyl-10β-methoxysinomenine], the “inhibition rate (IR) of TNF-α / anti-inflammatory activity (FIG. 1)” value with TNF-α [1] (10 µM) is on record as “TNF-α stimulating effects; also recorded: TNF-α stimulatory activities”.

As for `COC1=CC2[C@@H]3C(=O)c4ccc(OC)c(OC(C)=O)c4[C@]2(CCN3C)C[C@@H]1O` (stereo partly drawn) [Compound 39], the “inhibition rate (IR) of TNF-α / anti-inflammatory activity (FIG. 1)” value with TNF-α [1] is given as “apparent activities”.

For the molecule `COC1=CC2[C@@H]3C(=O)c4ccc(OC)c(OC(C)=O)c4[C@]2(CCN3C)C[C@H]1O` (stereo partly drawn) [Compound 40], the “inhibition rate (IR) of TNF-α / anti-inflammatory activity (FIG. 1)” value in the data set with TNF-α [1] is “apparent activities”.
